Measurements from paper PMC9604400, “Synthesis, Anticancer and Antitubercular Properties of New Chalcones and Their Nitrogen-Containing Five-Membered Heterocyclic Hybrids Bearing Sulfonamide Moiety” (International Journal of Molecular Sciences, 2022).
Values after ≈ are worked out from the molar mass of the structure shown. Where two headings read alike, the source gives them in different places.

Key:
[1] = Figure 1, literature compound, cited from earlier work
α-glucosidase = conditions: Figure 1, literature compound; cited from earlier work
Vero cell line = experiment: Cytotoxicity on Vero cell line (MTT); format: cell-based, African green monkey; conditions: Vero IC50 / MIC M. tuberculosis H37Rv
[2] = Cytotoxicity on Vero cell line (MTT); format: cell-based, African green monkey; conditions: African green monkey, Vero cells (African green monkey kidney, ATCC CCL-81); MTT, 24 h
[3] = system: Mycobacterium tuberculosis H37Rv (ATCC 27294); experiment: microbe, parasite or virus in culture; format: cell-based; conditions: agar dilution SPOTi, read-out: MIC Against M. tuberculosis H37Rv
[4] = system: Mycobacterium bovis BCG (ATCC 35734); experiment: microbe, parasite or virus in culture; format: cell-based; conditions: for MIC: Mycobacterium tuberculosis variant bovis BCG, read-out: MIC Against M. bovis BCG; for MIC Against M. bovis BCG: agar dilution SPOTi
[5] = system: 60 human cancer cell lines; experiment: NCI-60 screen (SRB), whole panel; format: cell-based; conditions: Homo sapiens; single dose 10 μM, mean over 60 cell lines; over 100% = cell death; read-out: Mean growth inhibition (GI) percentage
M. tuberculosis H37Rv [6] = experiment: Checkerboard synergism assay; format: cell-based, Mycobacterium tuberculosis; conditions: for MIC: Mycobacterium tuberculosis, H37RV, checkerboard, alone
Procedure: The synergism assays were carried out in 96-well plates with Middlebrook 7H9 medium supplemented with OADC.

M. tuberculosis H37Rv [7] = experiment: Growth curves in liquid medium and re-plating (cidal or static); format: cell-based, Mycobacterium tuberculosis; conditions: for cidal or static effect: re-plating on solid media without compound, up to 10×MIC
[8] = compound in combination with AMK
[9] = compound in combination with INH
[10] = compound in combination with LVX
[11] = compound in combination with RIF
[12] = 10×MIC, 21 days, compared with day 0
[13] = antibiotic in combination with 20a
[14] = antibiotic in combination with 20f

Row | Structure (SMILES) | Selectivity Index (SI) (SI = IC50/MIC) (Vero cell line) | IC50 at 24 h [2] | MIC ([3]; Mycobacterium tuberculosis) | MIC [4] | inhibition at 10 µM [5] | melting point | also measured
1 | Cc1ccc(S(=O)(=O)Nc2ccc(C(=O)/C=C/c3ccc(Br)cc3)cc2)cc1 [Compound 1] | – | – | – | – | – | – | LD50 [1]: 220 µM
2 | Cc1ccc(S(=O)(=O)Nc2ccc(C(=O)/C=C/c3ccc(O)c(O)c3)cc2)cc1 [Compound 2] | – | – | – | – | – | – | IC50 (α-glucosidase): 400 nM
3 | NS(=O)(=O)c1ccc(N2N=C(C(F)(F)F)CC2c2ccc(F)cc2F)cc1 (stereo not shown) [Compound 4] | – | – | – | – | – | – | ED50 ([1]; test not given): 7400 nM
4 | COc1cc(OC)c(S(N)(=O)=O)cc1C(=O)/C=C/c1ccc2c(c1)OCO2 [Compound 17f, (E)-5-(3-(Benzo[d][1,3]dioxol-5-yl)acryloyl)-2,4-dimethoxybenzenesulfonamide] | 0.07 | 1700 ± 1740 nM | 25 µM (≈ 9.79 µg/mL) | > 25 µM | 10.1% | 257 to 258 °C | –
5 | COc1ccc(C(=O)C=Cc2ccccc2)cc1S(=O)(=O)NNC(=O)c1ccncc1 [Compound 19a, 5-Cinnamoyl-N’-isonicotinoyl-2-methoxybenzenesulfonohydrazide] | 0.28 | 6320 ± 820 nM | 23 µM (≈ 10.1 µg/mL) | > 23 µM | 3.63% | 227 to 229 °C | –
6 | COc1ccc(/C=C/C(=O)c2ccc(OC)c(S(=O)(=O)NNC(=O)c3ccncc3)c2)cc1 [Compound 19d, (E)-N’-Isonicotinoyl-2-methoxy-5-(3-(4-methoxyphenyl)acryloyl)benzenesulfonohydrazide] | 0.10 | 2190 ± 680 nM | 21 µM (≈ 9.82 µg/mL) | > 21 µM | – | 216 to 217 °C | –
7 | COc1cc(OC)c(S(=O)(=O)NNC(=O)c2ccncc2)cc1C(=O)C=Cc1ccccc1 [Compound 20a, 5-Cinnamoyl-N’-isonicotinoyl-2,4-dimethoxybenzenesulfonohydrazide] | – | 6050 ± 1390 nM | 11 µM (≈ 5.14 µg/mL) | 11 µM (≈ 5.14 µg/mL) | 19% | 143 to 145 °C | MIC [3]: 11 µM (≈ 5.14 µg/mL); MIC (M. tuberculosis H37Rv [6]): 5 µg/mL; FICI Index (M. tuberculosis H37Rv [6]; [8]): 2.00; MIC Combination (M. tuberculosis H37Rv [6]; [8]): 5 µg/mL; FICI Index (M. tuberculosis H37Rv [6]; [9]): 0.75; MIC Combination (M. tuberculosis H37Rv [6]; [9]): 1.25 µg/mL; FICI Index (M. tuberculosis H37Rv [6]; [10]): 1.25; MIC Combination (M. tuberculosis H37Rv [6]; [10]): 1.25 µg/mL; FICI Index (M. tuberculosis H37Rv [6]; [11]): 1.25; MIC Combination (M. tuberculosis H37Rv [6]; [11]): 5 µg/mL; MIC Against M. bovis BCG [4]: 11 µM (≈ 5.14 µg/mL)
8 | COc1ccc(/C=C/C(=O)c2cc(S(=O)(=O)NNC(=O)c3ccncc3)c(OC)cc2OC)cc1 [Compound 20d, (E)-N’-Isonicotinoyl-2,4-dimethoxy-5-(3-(4-methoxyphenyl)acryloyl)benzenesulfonohydrazide] | 0.05 | 1000 ± 1200 nM | 20 µM (≈ 9.95 µg/mL) | > 20 µM | – | 214 to 217 °C | –
9 | COc1cc(OC)c(S(=O)(=O)NNC(=O)c2ccncc2)cc1C(=O)/C=C/c1cc(OC)c(OC)c(OC)c1 [Compound 20e, (E)-N’-Isonicotinoyl-2,4-dimethoxy-5-(3-(3,4,5-trimethoxyphenyl)acryloyl)benzenesulfonohydrazide] | 0.03 | 260 ± 690 nM | 9 µM (≈ 5.02 µg/mL) | 9 µM (≈ 5.02 µg/mL) | – | 162 to 165 °C | MIC Against M. bovis BCG [4]: 9.0 µM (≈ 5.02 µg/mL); growth of M. tuberculosis H37Rv in liquid medium (optical density) (M. tuberculosis H37Rv [7]; 1×MIC, after 21 days): moderate growth; growth of M. tuberculosis H37Rv in liquid medium (optical density) (M. tuberculosis H37Rv [7]; [12]): modest growth; cidal or static effect (M. tuberculosis H37Rv [7]): bacteriostatic
10 | COc1cc(OC)c(S(=O)(=O)NNC(=O)c2ccncc2)cc1C(=O)/C=C/c1ccc2c(c1)OCO2 [Compound 20f, (E)-5-(3-(Benzo[d][1,3]dioxol-5-yl)acryloyl)-N’-isonicotinoyl-2,4-dimethoxybenzenesulfonohydrazide] | 0.26 | 2550 ± 930 nM | 9.8 µM (≈ 5.01 µg/mL) | 20 µM (≈ 10.2 µg/mL) | 4.19% | 150 to 152 °C | MIC (M. tuberculosis H37Rv [6]): 5 µg/mL; FICI Index (M. tuberculosis H37Rv [6]; [8]): 2.00; MIC Combination (M. tuberculosis H37Rv [6]; [8]): 5 µg/mL; FICI Index (M. tuberculosis H37Rv [6]; [9]): 1.00; MIC Combination (M. tuberculosis H37Rv [6]; [9]): 2.5 µg/mL; FICI Index (M. tuberculosis H37Rv [6]; [10]): 1.00; MIC Combination (M. tuberculosis H37Rv [6]; [10]): 2.5 µg/mL; MIC Combination (M. tuberculosis H37Rv [6]; [11]): 1.25 µg/mL; interaction (from FICI) (M. tuberculosis H37Rv [6]; in combination with rifampicin): synergism; growth of M. tuberculosis H37Rv in liquid medium (optical density) (M. tuberculosis H37Rv [7]; 1×MIC, after 21 days): moderate growth; growth of M. tuberculosis H37Rv in liquid medium (optical density) (M. tuberculosis H37Rv [7]; [12]): no significant growth; cidal or static effect (M. tuberculosis H37Rv [7]): bacteriostatic
11 | COc1ccc(C2=NN(C(N)=S)C(c3ccc(Cl)cc3)C2)cc1S(N)(=O)=O (stereo not shown) [Compound 27a, 5-(4-Chlorophenyl)-3-(4-methoxy-3-sulfamoylphenyl)-4,5-dihydro-1H-pyrazole-1-carbothioamide] | – | – | – | – | -0.54% | 206 to 208 °C | –
12 | COc1cc(OC)c(S(N)(=O)=O)cc1C1=NN(C(N)=S)C(c2ccc(Cl)cc2)C1 (stereo not shown) [Compound 27d, 5-(4-Chlorophenyl)-3-(2,4-dimethoxy-5-sulfamoylphenyl)-4,5-dihydro-1H-pyrazole-1-carbothioamide] | – | – | – | – | 2.34% | 223 to 225 °C | –
13 | NNC(=O)c1ccncc1 [Isoniazid, isoniazid, reference compound] | – | – | 0.36 µM (≈ 0.0494 µg/mL) | 0.36 µM (≈ 0.0494 µg/mL) | – | – | MIC (M. tuberculosis H37Rv [6]): 0.012 µg/mL; FICI Index (M. tuberculosis H37Rv [6]; [13]): 0.75; MIC Combination (M. tuberculosis H37Rv [6]; [13]): 0.006 µg/mL; FICI Index (M. tuberculosis H37Rv [6]; [14]): 1.00; MIC Combination (M. tuberculosis H37Rv [6]; [14]): 0.006 µg/mL
